Measured values published in patent US7112680B2, “Heterocyclic hydrazones for use as anti-cancer agents” (Austria Wirtschaftsservice Gesellschaft MIT Beschrankter …, priority 2000, dated 2006).
Where two headings read alike, the source gives them in different places. Blank lines part the entries; values can stand above or below the compound they belong to.

How the values were obtained:
[1] = system: HT-29 (colon adenocarcinoma); assay: Inhibition of tumor cell growth, SRB-assay, HT-29; format: cell-based, human
Protocol: (§1) The KB cell lines were grown in Dulbecco's modified Eagle's medium (4,5 g glucose/l). To the cultures of KB-C1 cells 1 μg of colchicine/ml, and to the hydroxyurea-resistant KB-HU cells 1 mM hydroxyurea was added every other week. […] 3,000 - 10,000 cells in 200 μl medium were seeded per well into 96-well plates. […] Approximately 10,000 cells per 100 μl were seeded in 96-well plates. […] The substances were dissolved in dimethylsulfoxide (DMSO). […] Subsequently, the samples were fixed, washed, and the absorption was determined by a microplate reader.

[2] = system: Burkitt's lymphoma (CA 46, ATCC No. CRL 1648); assay: Inhibition of tumor cell growth, MTT-assay, Burkitt's lymphoma; format: cell-based, human
Protocol: as §1

[3] = system: multidrug-resistant KB-C1 cells; assay: Inhibition of tumor cell growth, SRB-assay, KB-C1; format: cell-based, human
Protocol: (§2) In order to obtain information about the growth-inhibiting action on tumor cells, the inhibition of the growth of the following human tumor cells was determined: Burkitt's lymphoma (CA 46, ATCC No. CRL 1648), CCRF-CEM (acute lymphoblastic leukemia, ATCC No. CCL 119), K562 (chronic myelogenous leukemia, ATTC No. CCL 243), HeLa (epitheloid cervix carcinoma, ATCC No. CCL 2), MEXF 276L (melanoma), HT-29 (colon adenocarcinoma, ATCC No. HTB 38), KB-3-1 (human oral epidermoid carcinoma, CTCC No. CCL 17), KB-HU hydroxyurea-resistant, multidrug-resistant KB-C1 cells (Akiyama et al, Cell. Mol Genet., 11:117–126, 1985). Burkitt's, CCRF-CEM, HeLa and MEXF 276L cells were grown in RPMI 1640, HT-29 cells in McCoy's 5A medium. The KB cell lines were grown in Dulbecco's modified Eagle's medium (4,5 g glucose/l). To the cultures of KB-C1 cells 1 μg of colchicine/ml, and to the hydroxyurea-resistant KB-HU cells 1 mM hydroxyurea was added every other week. The media were supplemented with 10% fetal calf serum (except Burkitt's lymphoma cells with 15%), 2 mM glutamine, 50 units/ml penicillin and 50 μg/ml streptomycin. Inhibition of growth of HeLa, HT-29, KB and MEXF 276L cells was detected by the SRB-assay (Skehan et al, J. Natl Cancer Inst., 82:1107–1112, 1990). 3,000 - 10,000 cells in 200 μl medium were seeded per well into 96-well plates. Dose-response curves for CCRF-CEM and Burkitt's lymphoma cells were effected by an MTT-assay (Mosman, J. Immunol Methods, 65:55–63, 1983) from Boehringer Mannheim, Mannheim, Germany. Approximately 10,000 cells per 100 μl were seeded in 96-well plates. After an initial incubation of four hours, various substance concentrations were added, and the cells were incubated at 37° C. in a water-saturated atmosphere of 95% air and 5% CO2 for 72 hours. The substances were dissolved in dimethylsulfoxide (DMSO). The concentration of DMSO was 0.5%, and this was not toxic to the cells. Subsequently, the samples were fixed, washed, and the absorption was determined by a microplate reader.

[4] = system: HeLa (epitheloid cervix carcinoma); assay: Inhibition of tumor cell growth, SRB-assay, HeLa; format: cell-based, human
[5] = system: KB-3-1 (human oral epidermoid carcinoma); assay: Inhibition of tumor cell growth, SRB-assay, KB-3-1; format: cell-based
Protocol: as §2

[6] = system: KB-HU hydroxyurea-resistant cells; assay: Inhibition of tumor cell growth, SRB-assay, KB-HU; format: cell-based, human
Protocol: as §2

[7] = system: human tumor grafts (cell lines of FIG. 1); assay: Colony forming assay (two-layer soft agar); format: cell-based; settings: for tumor type selectivity: colony forming assay, IC70 pattern, FIG. 1; for IC50 / IC90 / Mean IC70: mean values of all cell lines tested in FIG. 1, continuous exposure 3 to 6 days
Protocol: An excellent correlation of drug response in patients and the colony forming assay has been found (Scholz et al, Eur. J. Cancer 25:901–905, 1990). Solid human tumors were grown as grafts in nude mice, removed from the latter, mechanically comminuted and subsequently incubated in an enzyme cocktail consisting of collagenase (1.2–1.8 U/ml), DNAse (375 U/ml) and hyaluronidase (29 U/ml) in RPMI 1640 medium at 37° C. for 30 minutes. The cell mixture was passed through sieves of 200 μm and 50 μm mesh size and washed thereafter twice with PBS (phosphate buffered saline). The percentage of live cells was determined using a Neubauer counting chamber and trypan blue staining.
The colony forming assay was performed according to a two-layer agar technique introduced and modified by Hamburger and Salmon (Hamburger and Salmon, Science, 197:461–463, 1977). The bottom layer consisted of 0.2 ml of Iscoves's Modified Dulbecco's medium with 20% fetal calf serum and 0.75% agar. 8×10^3 to 1.6×10^4 cells were added to the same medium and 0.4% agar and plated in 24-multiwell plates onto the base layer. One day after the plating (with continuous exposure), the substances were added in 0.2 ml medium. Each plate included six controls containing the solvent only, and the treated groups contained 6 concentrations of the substances, each in triplicate. Cultures were incubated at 37° C. and 7% CO2 in a water-saturated atmosphere for 3 to 6 days, depending on the doubling time of the tumor cells. At the time of maximum colony formation with a size of […], counts were performed with an automatic image analysis system. 24 h prior to counting, live colonies were stained with a sterile aqueous solution of 2-(4-iodophenyl)-3-(4-nitrophenyl)-5-phenyltetrazolium chloride (1 mg/ml, 100 μl/well). The results of the tests are given in FIG. 1, and in the following Table 5, respectively. […] Columns pointing towards the right show a slighter than average activity.

[8] = Table 1, 72 hours, read-out: IC50 HT-29 (converted)
[9] = Table 1, 72 hours, read-out: IC50 Burkitts
[10] = Table 1, 72 hours, read-out: IC50 KB-Cl
[11] = Table 1, 72 hours, read-out: IC50 HeLa (converted)
[12] = Table 1, 72 hours, read-out: IC50 KB-3-1
[13] = Table 1, 72 hours, read-out: IC50 KB-HU
[14] = Homo sapiens, KBC-1, Table 4, 72 hours, read-out: In vitro-activity against human tumor cell lines, KB-C1
[15] = Homo sapiens, Table 4, 72 hours, read-out: In vitro-activity against human tumor cell lines, KB-HU
[16] = Homo sapiens, KB 3-1, Table 4, 72 hours, read-out: In vitro-activity against human tumor cell lines, KB-3-1
[17] = Table 4, 72 hours, read-out: In vitro-activity against human tumor cell lines, KB-C1
[18] = Table 4, 72 hours, read-out: In vitro-activity against human tumor cell lines, KB-HU
[19] = Table 4, 72 hours, read-out: In vitro-activity against human tumor cell lines, KB-3-1

SMILES: C(=NNc1nc2ccccc2[nH]1)c1ccccn1 [Ia-1]
- IC50 [1, 8]: 3690 nM
- IC50 [2, 9]: 660 nM
- IC50 [3, 10]: 2940 nM
- IC50 [4, 11]: 1020 nM
- IC50 [5, 12]: 1360 nM

SMILES: Cn1c(NN=Cc2ccccn2)nc2ccccc21 [Ia-2]
- IC50 [1, 8]: 270 nM
- IC50 [2, 9]: 30 nM
- IC50 [4, 11]: 80 nM

SMILES: CCC(=NNc1nc2ccccc2o1)c1ccccn1 [Ia-9]
- tumor type selectivity [7]: selectivity for colon, breast, ovarian, and uterus tumors

SMILES: CCCC(=NNc1nc2ccccc2[nH]1)c1ccccn1 [Ia-11]
- IC50 [1, 8]: 200 nM
- IC50 [3, 10]: 830 nM
- IC50 [6, 13]: 130 nM
- IC50 [4, 11]: 57 nM
- IC50 [5, 12]: 500 nM

SMILES: CC(C)C(=NNc1nc2ccccc2[nH]1)c1ccccn1 [Ia-15]
- IC50 [1, 8]: 520 nM
- IC50 [3, 10]: 1980 nM
- IC50 [6, 13]: 1 nM
- IC50 [4, 11]: 21 nM
- IC50 [5, 12]: 700 nM

SMILES: c1ccc(C(=NNc2nc3ccccc3[nH]2)C2CC2)nc1 [Ia-23]
- IC50 [1, 8]: 510 nM
- IC50 [3, 10]: 320 nM
- IC50 [4, 11]: 70 nM

SMILES: c1ccc(C(=NNc2nc3ccccc3[nH]2)c2ccccn2)nc1 [Ia-36]
- IC50 [1, 8]: 1360 nM
- IC50 [3, 10]: 2110 nM
- IC50 [4, 11]: 1430 nM

SMILES: COc1cccnc1C(C)=NNc1nc2ccccc2n1C [Id-1, 1-(3-Methoxy-2-pyridyl)-1-ethanone-1-(1-methyl-1H-benzo[d]imidazol-2-yl)-hydrazone]
- IC50 ([1]; Homo sapiens, HT-29, Table 4, 72 hours, read-out: In vitro-activity against human tumor cell lines, HT-29): 230 nM
- IC50 ([2]; Homo sapiens, CA46, Table 4, 72 hours, read-out: In vitro-activity against human tumor cell lines, Burkitts): 1 nM
- IC50 [3, 14]: 870 nM
- IC50 [6, 15]: 10 nM
- IC50 ([4]; Homo sapiens, HeLa, Table 4, 72 hours, read-out: In vitro-activity against human tumor cell lines, HeLa): 50 nM
- IC50 [5, 16]: 20 nM

SMILES: CC(=NNc1nc2ccccc2n1C)c1ncccc1C [Id-7]
- IC50 [3, 17]: 160 nM
- IC50 [6, 18]: 460 nM
- IC50 [5, 19]: 260 nM

SMILES: CC(=NNc1nc2ccccc2n1C)c1cc(C)ccn1 [Id-8]
- IC50 [3, 17]: 100 nM
- IC50 [6, 18]: 20 nM
- IC50 [5, 19]: 30 nM
- tumor type selectivity [7]: selectivity for colon, breast, ovarian, and uterus tumors
- IC50 [7]: 102 nM
- IC90 [7]: 2380 nM
- Mean IC70 [7]: 317 nM

SMILES: CC(=NNc1nc2ccccc2n1C)c1ccc(C)cn1 [Id-9, 1-(5-Methyl-2-pyridyl)-1-ethanone-1-(1-methyl-1H-benzo[d]imidazol-2-yl)-hydrazone]
- IC50 [3, 14]: 110 nM
- IC50 [6, 15]: 120 nM
- IC50 [5, 16]: 40 nM
- IC50 ([7]; Homo sapiens): 199 nM
- IC90 ([7]; Homo sapiens): 3790 nM
- Mean IC70 [7]: 560 nM

Continued, in another order:

- IC50 [1, 8]: 1440 nM
- IC50 [2, 9]: 5 nM
- IC50 [3, 10]: 770 nM
- IC50 [6, 13]: 610 nM
- IC50 [4, 11]: 25 nM
- IC50 [5, 12]: 480 nM
SMILES: C(=NNc1nc2ccccc2o1)c1ccccn1 [Ia-3]

- IC50 ([1]; Homo sapiens, HT-29, Table 1, 72 hours, read-out: IC50 HT-29 (converted)): 490 nM
- IC50 ([2]; Homo sapiens, CA46, Table 1, 72 hours, read-out: IC50 Burkitts): 44 nM
- IC50 ([3]; Homo sapiens, KBC-1, Table 1, 72 hours, read-out: IC50 KB-Cl): 1970 nM
- IC50 ([6]; Homo sapiens, Table 1, 72 hours, read-out: IC50 KB-HU): 900 nM
- IC50 ([4]; Homo sapiens, HeLa, Table 1, 72 hours, read-out: IC50 HeLa (converted)): 70 nM
- IC50 ([5]; Homo sapiens, KB 3-1, Table 1, 72 hours, read-out: IC50 KB-3-1): 510 nM
SMILES: CC(=NNc1nc2ccccc2[nH]1)c1ccccn1 [Ia-4, 1-(2-Pyridyl)-1-ethanon-1(1H-benzo[d]imidazol-2-yl)-hydrazone]

- IC50 [1, 8]: 50 nM
- IC50 [2, 9]: 4.3 nM
- IC50 [3, 10]: 48 nM
- IC50 [6, 13]: 52 nM
- IC50 [4, 11]: 5.4 nM
- IC50 [5, 12]: 44 nM
SMILES: CC(=NNc1nc2ccccc2n1C)c1ccccn1 [Ia-5]

- IC50 [1, 8]: 130 nM
- IC50 [2, 9]: 9 nM
- IC50 [3, 10]: 610 nM
- IC50 [6, 13]: 320 nM
- IC50 [4, 11]: 23 nM
- IC50 [5, 12]: 210 nM
SMILES: CC(=NNc1nc2ccccc2o1)c1ccccn1 [Ia-6]

- IC50 [1, 8]: 240 nM
- IC50 [3, 10]: 740 nM
- IC50 [4, 11]: 53 nM
- IC50 [5, 12]: 4010 nM
SMILES: CCC(=NNc1nc2ccccc2[nH]1)c1ccccn1 [Ia-7]

- IC50 [1, 8]: > 100000 nM
- IC50 [3, 10]: 92000 nM
- IC50 [4, 11]: > 100000 nM
SMILES: CC(C)(C)C(=NNc1nc2ccccc2[nH]1)c1ccccn1 [Ia-19]

- IC50 ([1]; Table 4, 72 hours, read-out: In vitro-activity against human tumor cell lines, HT-29): 120 nM
- IC50 [3, 17]: 160 nM
- IC50 [6, 18]: 40 nM
- IC50 ([4]; Table 4, 72 hours, read-out: In vitro-activity against human tumor cell lines, HeLa): 50 nM
- IC50 [5, 19]: 50 nM
- IC50 [7]: 80 nM
- IC90 [7]: 2850 nM
SMILES: COc1ccnc(C(C)=NNc2nc3ccccc3n2C)c1 [Id-2]
- tumor type selectivity [7]: selectivity for colon, breast, ovarian, and uterus tumors
- Mean IC70 [7]: 261 nM
